# Test results: PMC9127750, “Structure-based design of CDC42 effector interaction inhibitors for the treatment of cancer” (Cell reports, 2022)
# “And” between values parts separate entries of the source, which are not always exact repeats. Equal entries are not always repeated.
# Test system: WM3248 melanoma cells, 486 antibodies
# Assay: Reverse phase protein arrays (RPPA)
# Assay type: cell-based, Human
# Details: 10 uM
# Description: Pellets were snap frozen in liquid nitrogen and shipped to MD Anderson Cancer Center core RPPA facility for RPPA analysis (Table S5). Three biological replicates for each sample were generated.
# Nomenclatures on the RPPA heatmaps: name_of_antibody.species_of_antibody.status_of_antibody. V - antibody validated; C - validation of antibody in progress; Q - antibody nonspecific; E – under evaluation; antibodies raised in M - mouse, G - goat, R - rabbit, or T - rat.
compound,measurement,setting,value
"CN(C)c1cccc(Nc2cc(-c3ccccc3)nc(C3CCNCC3)n2)c1 [ARN22089, N1,N1-dimethyl-N3-(6-phenyl-2-(piperidin-4-yl)pyrimidin-4-yl)benzene-1,3-diamine]",RPPA level MMP14.R.V,single replicates,0.939 and 1.138
same,RPPA level MR1.M.C,single replicates,1.059 and 1.005 and 1.063
same,RPPA level MRAP.R.C,single replicates,1.023 and 1.051
same,RPPA level MSH2.R.C,single replicates,0.977 and 1.024
same,RPPA level MSH6.R.C,single replicates,0.940 and 0.976
same,RPPA level MSI2.R.C,single replicates,1.020 and 0.933
same,RPPA level MTCO1.M.V,single replicates,1.128 and 0.684
same,RPPA level MTSS1.M.C,single replicates,1.023 and 1.031
same,RPPA level Mcl.1.R.V,single replicates,0.823 and 0.973 and 0.929
same,RPPA level MelanA.R.C,single replicates,0.752 and 0.988 and 1.034
same,RPPA level Melanoma.gp100.R.C,single replicates,0.837 and 0.959 and 1.052
same,RPPA level Merlin.R.C,single replicates,1.020 and 0.924
same,RPPA level Midkine.R.V,single replicates,1.032 and 0.966 and 1.004
same,RPPA level Mitofusin.1.R.V,single replicates,0.925 and 1.003 and 1.050
same,RPPA level Mitofusin.2.R.V,single replicates,0.797 and 0.934 and 1.103
same,RPPA level Mnk1.R.V,single replicates,0.917 and 0.929 and 1.022
same,RPPA level mTOR.R.V,single replicates,1.016 and 0.918 and 0.854
same,RPPA level mTOR_pS2448.R.C,single replicates,1.016 and 0.946 and 0.924
same,RPPA p21.R.C,single replicates,1.203 and 0.773 and 1.055
same,RPPA p27.Kip1.R.C,single replicates,1.051 and 0.999
same,RPPA p27_pT157.R.C,single replicates,1.124 and 1.006
same,RPPA p27_pT198.R.V,single replicates,0.989 and 1.466 and 1.049
same,RPPA p38.MAPK.R.V,single replicates,0.899 and 0.964 and 1.062
same,RPPA p38.MAPK._pT180_Y182.R.V,single replicates,0.872 and 0.913 and 0.950
same,RPPA p38.a.M.V,single replicates,0.966 and 1.049
same,RPPA p44.42.MAPK.R.V,single replicates,0.852 and 0.899
same,RPPA p53.R.C,single replicates,0.871 and 0.886 and 0.966
same,RPPA p70.S6K1.R.V,single replicates,1.046 and 0.827 and 0.882
same,RPPA p70.S6K_pT389.R.V,single replicates,1.331 and 0.838 and 0.820
same,RPPA p90RSK_pT573.R.C,single replicates,1.224 and 0.922 and 1.014
same,RPPA DNMT1.R.V,single samples,1.052 and 0.962 and 1.050
same,RPPA DRP1.R.V,single samples,1.012 and 0.957 and 0.978
same,RPPA DUSP4.R.V,single samples,0.821 and 0.862 and 1.012
same,RPPA DUSP6.R.C,single samples,1.063 and 0.981 and 0.768
same,RPPA DYRK1B.R.C,single samples,1.057
same,RPPA Dvl3.R.V,single samples,0.885 and 1.058 and 1.012
same,RPPA E2F1.R.V,single samples,1.030 and 1.011
same,RPPA E.Cadherin.R.V,single samples,0.941 and 1.144 and 1.080
same,RPPA EGFR.R.V,single samples,0.824 and 0.981 and 0.985
same,RPPA EGFR_pY1068.R.C,single samples,0.993 and 0.982
same,RPPA EGFR_pY1173.R.V,single samples,0.968 and 1.017 and 0.987
same,RPPA EMA.M.C,single samples,1.080 and 1.274
same,RPPA ENY2.M.C,single samples,0.960 and 1.056
same,RPPA ER.a.R.V,single samples,0.808 and 0.999 and 1.013
same,RPPA ER.a_pS118.R.V,single samples,1.079 and 0.918 and 0.929
same,RPPA ERCC1.R.C,single samples,1.102 and 1.123 and 0.975
same,RPPA ERCC5.R.C,single samples,0.931 and 0.897 and 0.810
same,RPPA ERRalpha.R.V,single samples,1.149 and 0.962
same,RPPA EVI1.R.V,single samples,1.129 and 1.023
same,RPPA Elk1_pS383.R.C,single samples,0.944 and 1.020 and 1.011
same,RPPA Enolase.1.R.V,single samples,0.956 and 0.946
same,RPPA Enolase.2.R.V,single samples,1.058 and 1.146 and 1.060
same,RPPA EphA2.R.V,single samples,0.798 and 1.104 and 1.103
same,RPPA EphA2_pY588.R.C,single samples,0.976 and 0.887
same,RPPA Erk5.R.V,single samples,0.766 and 0.899 and 1.062
same,RPPA Ets.1.R.V,single samples,1.143 and 1.054 and 1.017
same,RPPA FABP5.R.C,single samples,0.909 and 1.032 and 1.076
same,RPPA FAK.R.C,single samples,0.856 and 0.998
same,RPPA FAK_pY397.R.V,single samples,1.077 and 0.996
same,RPPA FANCD2.R.V,single samples,1.119 and 0.953 and 0.957
same,RPPA FASN.R.V,single samples,1.052 and 0.855 and 0.656
same,RPPA FGF.basic.R.C,single samples,0.867 and 1.005 and 0.952
same,RPPA FN14.R.C,single samples,0.860 and 1.189 and 1.048
same,RPPA FOXM1.R.V,single samples,1.131 and 0.950 and 0.985
same,RPPA FOXO3.R.V,single samples,0.873 and 1.121 and 1.097
same,RPPA FRS2.alpha_pY196.R.V,single samples,1.003 and 1.811
same,RPPA FTO.R.V,single samples,1.061 and 0.989 and 0.960
same,RPPA Fibronectin.R.V,single samples,0.546 and 0.983 and 0.999
same,RPPA FoxO3a_pS318_S321.R.C,single samples,1.060 and 0.984
same,RPPA G6PD.R.V,single samples,1.051 and 1.085 and 1.058
same,RPPA GATA3.M.V,single samples,1.245 and 0.906 and 0.898
same,RPPA GATA6.R.V,single samples,1.116 and 0.978
same,RPPA GCLC.R.C,single samples,0.924 and 1.030
same,RPPA GCLM.R.V,single samples,1.052 and 1.025 and 1.000
same,RPPA GCN5L2.R.V,single samples,0.890 and 0.985
same,RPPA GGPS1.M.V,single samples,0.998 and 0.974 and 1.046
same,RPPA GRB2.R.V,single samples,0.833 and 0.898 and 0.998
same,RPPA GRB7.R.V,single samples,0.772 and 1.100
same,RPPA GSK.3B.R.C,single samples,0.886 and 0.913 and 0.953
same,RPPA GSK.3a.b.M.V,single samples,1.163 and 1.006 and 1.033
same,RPPA GSK.3a.b_pS21_S9.R.V,single samples,1.290 and 0.899 and 0.932
